Test results as given in publication PMC4601023, “Novel anticancer agent, SQAP, binds to focal adhesion kinase and modulates its activity” (Scientific Reports, 2015).
pKd: −log10 of the molar value.

Assays:
HUVEC cells = experiment: WST-8 cell viability assay, HUVEC; type: cell-based, human; details: 17 h, SQAP 10 and 20 µM
Procedure: (§1) HUVEC and A549 cells were seeded into a 96-well culture plate (2 × 10^4 cells/well). The following day, cells were treated with SQAP or vehicle in a medium containing 1% FBS and VEGF (50 ng/mL) for 17 h (HUVEC) or fibronectin (10 μg/mL) for 46 h (A549). Cell viability was measured using Cell Count Reagent SF (Nacalai Tesque, Kyoto, Japan) following the manufacturer’s instructions. Briefly, 1/10 volume of the WST-8 solution was added to each well, and the plates were incubated at 37 °C for 1 h. Then, cell viability was determined colorimetrically by measuring OD450 using a microplate reader on a Wallac ARVO 5X microplate reader (Perkin Elmer, Waltham, MA, USA).
(§2) control SQAP 10 µM SQAP 20 µM
(§3) Livecellswere measured with SF reagent under similarconditionsas describedin thewound healing
(§4) assayinFig.5. (A)HUVEC and (B)A549 cells.
(§5) (also on this page, place not known: Cell viability (%) Cell viability (%) Live cells were similar conditions as described in the wound assay in Fig. 5. (A) HUVEC (B) A549)

[1] = system: FAK phosphorylation (Y397, Y925) in HUVEC cells; experiment: FAK phosphorylation level in HUVEC, Western blotting; type: cell-based, human
Procedure: HUVEC cells were incubated for 20 h in serum-free medium in 60 mm dishes. SQAP, SQMG or SQP was added and incubated for 30 min followed by addition of 50 ng/mL VEGF (RD systems, Minneapolis, MN. USA) and incubation for another 30 min. FAK phosphorylation level was analyzed by Western blotting as described in the next section.
Cells were harvested and solubilized in RIPA buffer (20 mM Tris-HCl, pH 7.5, 1% Sodium deoxycholate, 150 mM NaCl, 5 mM EDTA, 1% Triton X-100, 0.1% SDS, 0.1%, 1 mM PMSF, 1 mM vanadate and 1 μg/mL leupeptin). Protein quantification was determined using the DC protein assay kit (Bio-Rad, Hercules, CA, USA). A total of 15 μg of each protein sample were separated by SDS–PAGE gels and blotted onto polyvinylidene difluoride membranes (Merck, Kenilworth, NJ, US). After blocking for 1 h with Blocking-One (Nacalai Tesque, Kyoto, Japan), proteins were detected by incubating the membranes with the primary antibody at 4 °C overnight (anti-Y397 2:2000, anti-Y925 5:2000 and anti-FAK 0.5:2000) followed by incubation with horseradish peroxidase-conjugated secondary antibodies at room temperature for 1 h (anti-mouse 0.5:2000 and anti-rabbit 0.4:2000).

[2] = system: paxillin phosphorylation at Y118 in A549; experiment: Paxillin phosphorylation in A549, Western blotting; type: cell-based, human; details: A549, 21 h treatment, 10 µM
Procedure: Fibronectin is a glycoprotein located in the extracellular matrix that binds to integrins. […] A549 lung cancer cells have been used before for studying cell migration because of their metastatic model potential. A549 cells are also one of the tumor cell lines sensitive to SQMG[9]. Therefore, we studied the phosphorylation of FAK in A549 cells (Fig. 5C,D). SQAP could inhibit the phosphorylation of FAK at Y397 and Y925 after 1 h treatment in a dose dependent manner. […] We also examined paxillin and Akt phosphorylation in A549 as downstream targets of FAK. […] We hypothesize that SQAP diminish on Akt phosphorylation being more readily in A549 cancer cells than in HUVEC endothelial cells might be due to a higher Akt basal activity on cancer cells.
Cells were harvested and solubilized in RIPA buffer (20 mM Tris-HCl, pH 7.5, 1% Sodium deoxycholate, 150 mM NaCl, 5 mM EDTA, 1% Triton X-100, 0.1% SDS, 0.1%, 1 mM PMSF, 1 mM vanadate and 1 μg/mL leupeptin). Protein quantification was determined using the DC protein assay kit (Bio-Rad, Hercules, CA, USA). A total of 15 μg of each protein sample were separated by SDS–PAGE gels and blotted onto polyvinylidene difluoride membranes (Merck, Kenilworth, NJ, US). […]

MFE-2 (598–736) = molecular target: T1, MFE-2 (598–736) (Homo sapiens, UniProt P51659); experiment: SPR analysis, immobilized His-tagged MFE-2 (598-736); type: binding; details: Biacore 3000, CM5 chip, 25 °C, read-out: dissociation constant (KD) for MFE-2
T1 construct: For MFE-2 (598–736) DNA was amplified; made in house; host or cells: E. coli Rosetta 2 (DE3) pLysS
Description: SPR was utilized as an independent confirmation of the kinetic parameters between SQAP and the putative binding proteins. […] The recombinant proteins were then expressed in Escherichia coli and purified to homogeneity. In addition, full length, His-tagged ADRM1 and GST-tagged HR23B (GST-HR23B) were also used. The proteins were first immobilized on a CM5 sensor chip of the SPR biosensor (Biacore 3000). For GST-HR23B analysis, a GST protein was additionally immobilized and used as a control in order to eliminate possible nonspecific binding of SQAP. SQAP samples at different concentrations were then injected over the proteins immobilized on the sensor chip. As a negative control we used sulfoquynovosylpropanediol (SQP), which lacks the fatty acid moiety of SQAP (Fig. 1). […]
The binding kinetics of SCP-2, MFE-2, ADRM1, HR23B and FAK with SQAP and SQP were analyzed on a Biacore 3000 instrument (GE Healthcare, Little Chalfont, UK). […] The buffer of purified peptides was exchanged to HBS-P (150 mM NaCl, 0.005% Surfactant P20, 10 mM HEPES-NaOH pH 7.4) using a PD 10 column (GE Healthcare, Little Chalfont, UK) and the concentrations were quantified using DC protein assay kit (Bio-Rad Laboratories, Hercules, CA, USA). […] Kinetic parameters were determined by analyzing the data using BIAevaluation 4.1 software (GE Healthcare, Little Chalfont, UK).

A549 cells = experiment: WST-8 cell viability assay, A549; type: cell-based, human; details: A549, 46 h, SQAP 10 and 20 µM
Procedure: as §1, §2, §3, §4, §5

T1 sequence (P51659 598-736): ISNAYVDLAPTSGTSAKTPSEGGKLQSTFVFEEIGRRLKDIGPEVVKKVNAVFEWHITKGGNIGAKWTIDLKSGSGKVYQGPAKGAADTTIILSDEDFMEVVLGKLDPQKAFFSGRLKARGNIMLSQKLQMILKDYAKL

## CCCCCCCCCCCCCCCCCC(=O)OCCCO[C@H]1O[C@H](CS(=O)(=O)O)[C@@H](O)[C@H](O)[C@H]1O [SQAP, sulfoquynovosylacylpropanediol]
HUVEC cells
  cytotoxicity (WST-8 cell viability): noncytotoxic
[1]; VEGF 50 ng/mL, 1 h
  phosphorylation level of FAK at Y397 and at Y925 after VEGF stimulation: appreciably reduced
[1]; no VEGF, within 1 h
  phosphorylation of FAK in the absence of VEGF: inhibited
[2]
  paxillin phosphorylation at Y118: inhibition of paxillin phosphorylation at Y118 took 21 h treatment
MFE-2 (598–736)
  pKd: 4.85
A549 cells
  cytotoxicity (WST-8 cell viability): noncytotoxic
